Assay results as given in ChEMBL document CHEMBL1201862, “PubChem BioAssay data set” (2004).
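All cell lines were grown in 96-well plates and treated with compound for 48 hours. GI50 = concentration required for 50% inhibition of growth.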 Calls of active or inactive are those of the source. Cut-off read from the data, not from the text of the source: active = GI50 up to about 1.1 µM and inactive = higher.

Columns and labels:
Assay in all cases: NCI tumour cell line growth inhibition, 48 h
SK-OV-3 = test system: SK-OV-3
ACHN = test system: ACHN
MDA-MB-231 = test system: MDA-MB-231
SK-MEL-5 = test system: SK-MEL-5
DU-145 = test system: DU-145
PC-3 = test system: PC-3
UO-31 = test system: UO-31
HOP-92 = test system: HOP-92
OVCAR-5 = test system: OVCAR-5
NCI/ADR-RES = test system: NCI/ADR-RES
HL-60 = test system: HL-60
TK-10 = test system: TK-10
NCI-H23 = test system: NCI-H23
OVCAR-4 = test system: OVCAR-4
SNB-75 = test system: SNB-75
Malme-3M = test system: Malme-3M
Hs-578T = test system: Hs-578T
M14 = test system: M14
U-251 = test system: U-251
CCRF-CEM = test system: CCRF-CEM

Row | Compound | GI50 (SK-OV-3) | GI50 (ACHN) | GI50 (MDA-MB-231) | GI50 (SK-MEL-5) | GI50 (DU-145) | GI50 (PC-3) | GI50 (UO-31) | GI50 (HOP-92) | GI50 (OVCAR-5) | GI50 (NCI/ADR-RES) | GI50 (HL-60) | GI50 (TK-10) | GI50 (NCI-H23) | GI50 (OVCAR-4) | GI50 (SNB-75) | GI50 (Malme-3M) | GI50 (Hs-578T) | GI50 (M14) | GI50 (U-251) | GI50 (CCRF-CEM)
1 | C#CCSc1nc(-c2ccco2)n[nH]1 | > 100 µM (inactive) | > 100 µM (inactive) | > 100 µM (inactive) | > 100 µM (inactive) | > 100 µM (inactive) | > 100 µM (inactive) | 17.2 µM (inactive) | > 100 µM (inactive) | > 100 µM (inactive) | > 100 µM (inactive) | > 100 µM (inactive) | > 100 µM (inactive) | > 100 µM (inactive) | > 100 µM (inactive) | > 100 µM (inactive) | > 100 µM (inactive) | > 100 µM (inactive) | > 100 µM (inactive) | > 100 µM (inactive) | 
2 | c1ccc(/N=C2\SC(c3ccccc3)CN2C23CC4CC(CC(C4)C2)C3)cc1 (stereo unspecified) |  | > 100 µM (inactive) | > 100 µM (inactive) | > 100 µM (inactive) | > 100 µM (inactive) | > 100 µM (inactive) | > 100 µM (inactive) | > 100 µM (inactive) | > 100 µM (inactive) | > 100 µM (inactive) | > 100 µM (inactive) | > 100 µM (inactive) | > 100 µM (inactive) | > 100 µM (inactive) | > 100 µM (inactive) | > 100 µM (inactive) | > 100 µM (inactive) | > 100 µM (inactive) | > 100 µM (inactive) | > 100 µM (inactive)
3 | O=C(O)CN1CCNCCNCC1 | > 100 µM (inactive) | > 100 µM (inactive) | > 100 µM (inactive) | > 100 µM (inactive) | > 100 µM (inactive) | > 100 µM (inactive) | > 100 µM (inactive) | > 100 µM (inactive) | > 100 µM (inactive) | > 100 µM (inactive) | 0.9 µM (active) | > 100 µM (inactive) |  | > 100 µM (inactive) | 17.5 µM (inactive) |  | > 100 µM (inactive) | > 100 µM (inactive) | > 100 µM (inactive) | > 100 µM (inactive)
4 | Cc1cc(N(CCCl)CCCl)ccc1/C=N/NC(=O)Cc1cc(=O)oc2cc(O)ccc12 |  | 6.67 µM (inactive) | 30.6 µM (inactive) | 8.51 µM (inactive) | 18.5 µM (inactive) | 11.9 µM (inactive) | 22.9 µM (inactive) | 27 µM (inactive) | 31.6 µM (inactive) | 37.6 µM (inactive) | 12.2 µM (inactive) |  | 19.5 µM (inactive) | 16.6 µM (inactive) | 28.6 µM (inactive) | 12.6 µM (inactive) | 17.2 µM (inactive) | 14.3 µM (inactive) | 14.2 µM (inactive) | 6.38 µM (inactive)
5 | CN(C)C(=S)N1C(=S)N(c2ccccc2)C(=N/c2ccccc2)/C1=N\c1ccccc1 | > 100 µM (inactive) | > 100 µM (inactive) | > 100 µM (inactive) | > 100 µM (inactive) | > 100 µM (inactive) | > 100 µM (inactive) | > 100 µM (inactive) | > 100 µM (inactive) | > 100 µM (inactive) | > 100 µM (inactive) | > 100 µM (inactive) | > 100 µM (inactive) | > 100 µM (inactive) | > 100 µM (inactive) | > 100 µM (inactive) | > 100 µM (inactive) | > 100 µM (inactive) |  | > 100 µM (inactive) | > 100 µM (inactive)
6 | C[C@]12CC[C@H]3[C@@H](CCC4=CC(=O)CC[C@@]43C)[C@@H]1CC[C@@H]2C(=O)Nc1ccc([N+](=O)[O-])c(C(F)(F)F)c1 | 12.7 µM (inactive) | 18.7 µM (inactive) | 17.1 µM (inactive) | 14.3 µM (inactive) | 20.7 µM (inactive) | 19.6 µM (inactive) | 16.6 µM (inactive) | 39.8 µM (inactive) | > 10 µM (inactive) | 13.3 µM (inactive) | 39.4 µM (inactive) | 19 µM (inactive) | > 10 µM (inactive) | 15.3 µM (inactive) |  | 15.6 µM (inactive) | 18.2 µM (inactive) |  | 17.1 µM (inactive) | 24.7 µM (inactive)
7 | CC1CCC(C(C)C2C(O)CC3C4CC=C5CC(O)CCC5(C)C4CCC32C)NC1 (stereo unspecified) | > 100 µM (inactive) | 42 µM (inactive) | 24.7 µM (inactive) | 44.2 µM (inactive) | 69.8 µM (inactive) | 26.9 µM (inactive) | 41.4 µM (inactive) | 23.7 µM (inactive) | 89.7 µM (inactive) | 23.4 µM (inactive) | 17.3 µM (inactive) | 14.5 µM (inactive) | 36.9 µM (inactive) | 20.2 µM (inactive) | 28.2 µM (inactive) | 20.6 µM (inactive) | 35.9 µM (inactive) | > 100 µM (inactive) | 24.4 µM (inactive) | 
8 | O=C(Nc1cccc2ccccc12)c1cc2ccccc2oc1=O | 30.2 µM (inactive) | 24.3 µM (inactive) | 23.6 µM (inactive) | > 100 µM (inactive) | > 100 µM (inactive) | > 100 µM (inactive) |  | > 100 µM (inactive) | 41.1 µM (inactive) | 60.3 µM (inactive) | > 100 µM (inactive) |  | 36.7 µM (inactive) | 78 µM (inactive) | 30.6 µM (inactive) | 12.5 µM (inactive) | 32.8 µM (inactive) | > 100 µM (inactive) | 34 µM (inactive) | > 100 µM (inactive)
9 | O=c1[nH]nc(-c2ccccc2)c2[nH]c3c(c12)CCCc1ccccc1-3 | 52.2 µM (inactive) | 11.9 µM (inactive) | 15.9 µM (inactive) | 12.4 µM (inactive) | 17.6 µM (inactive) | 14.9 µM (inactive) | 12.8 µM (inactive) | 13.3 µM (inactive) | 18.7 µM (inactive) | 12.4 µM (inactive) | 20.9 µM (inactive) | 19.4 µM (inactive) | 52.2 µM (inactive) | 12.9 µM (inactive) |  | 11.8 µM (inactive) | 17 µM (inactive) | 16.8 µM (inactive) | 11.4 µM (inactive) | 14 µM (inactive)
10 | COC1C(=O)CCC2(CO2)C1(O)C1(C)OC1CCC(C)C (stereo unspecified) | > 100 µM (inactive) | 28.2 µM (inactive) | 15.6 µM (inactive) | 21.5 µM (inactive) | 5.6 µM (inactive) | 25.9 µM (inactive) | > 100 µM (inactive) | > 100 µM (inactive) | > 100 µM (inactive) | > 100 µM (inactive) | 42.8 µM (inactive) |  | 22.6 µM (inactive) | > 100 µM (inactive) | > 100 µM (inactive) | 30.2 µM (inactive) | 84.3 µM (inactive) | 20.1 µM (inactive) | 13.5 µM (inactive) | 40.4 µM (inactive)
11 | CC(CN(C)C)C(=O)/C=C/c1ccc(Cl)c(Cl)c1 (stereo unspecified) | 4.55 µM (inactive) | 1.87 µM (inactive) | 1.73 µM (inactive) | 1.6 µM (inactive) | > 100 µM (inactive) | 1.04 µM (active) | 1.69 µM (inactive) | 1.68 µM (inactive) | 2.06 µM (inactive) | 3.52 µM (inactive) | 1.62 µM (inactive) | 2.02 µM (inactive) | 2.11 µM (inactive) | 4.76 µM (inactive) | 19.1 µM (inactive) |  | 3.69 µM (inactive) | 2.09 µM (inactive) | 1.26 µM (inactive) | 0.453 µM (active)
12 | CO/C=C(/C(=O)OC)c1ccccc1[C@H]1C[C@@H]1c1ccccc1 | 16.7 µM (inactive) | 22.5 µM (inactive) | 31.6 µM (inactive) | 8.02 µM (inactive) | 27.2 µM (inactive) | 22.8 µM (inactive) | 29.4 µM (inactive) | 21.3 µM (inactive) | 73.8 µM (inactive) | 24 µM (inactive) | 21.9 µM (inactive) | 28 µM (inactive) | 23.2 µM (inactive) | 17.8 µM (inactive) |  | 13.1 µM (inactive) | 33.7 µM (inactive) | 19.2 µM (inactive) | 23.1 µM (inactive) | 10.6 µM (inactive)
13 | CC(=O)O[C@H]1C(=O)[C@@]2(C)[C@H]([C@H](OC(=O)c3ccccc3)[C@]3(O)C[C@H](OC(=O)[C@H](O)[C@@H](NC(=O)OC(C)(C)C)c4ccco4)C(C)=C1C3(C)C)[C@]1(OC(C)=O)CO[C@@H]1C[C@@H]2O | < 0.005 µM (active) | 8.2 µM (inactive) | < 0.005 µM (active) | < 0.005 µM (active) | < 0.005 µM (active) | < 0.005 µM (active) | 0.0105 µM (active) | 7.23 µM (inactive) | 0.00724 µM (active) | 0.0185 µM (active) | < 0.005 µM (active) | 0.0116 µM (active) | 0.00966 µM (active) | 4.18 µM (inactive) | < 0.005 µM (active) | 6.61 µM (inactive) | < 0.005 µM (active) | 0.0794 µM (active) | 0.00661 µM (active) | < 0.005 µM (active)
14 | O=C(/C=C/c1ccccc1)c1cc(CN2CCOCC2)c(O)c(CN2CCOCC2)c1 |  | 2.32 µM (inactive) | 18.2 µM (inactive) | 13.1 µM (inactive) | 16 µM (inactive) | 19.2 µM (inactive) | 15.4 µM (inactive) | 12.1 µM (inactive) | 14.6 µM (inactive) | 25.5 µM (inactive) | 4.57 µM (inactive) | 20.6 µM (inactive) | 22.5 µM (inactive) |  | 19.3 µM (inactive) |  | 35.6 µM (inactive) | 17.9 µM (inactive) | 4.51 µM (inactive) | 2.71 µM (inactive)
